Measured values as given in publication PMC12914960, “Repurposing a detrimental antibody epitope as targeted therapeutics for sepsis and rheumatoid arthritis” (Military Medical Research, 2026).
Where a SMILES comes first, the peptide text is derived from it.

System: CAIA in BALB/c mice
Assay: Arthritis severity score, collagen antibody-induced arthritis (CAIA)
Format: in vivo, mouse
Procedure: The CAIA model was established in BALB/c mice (8–10 weeks old) as described previously. On Day 0, the mice received an i.p. injection of 2 mg of anti-collagen II mAb cocktail (α-CII, Chondrex, Inc., Redmond, WA, USA). On Day 3, the mice received an i.p. injection of 30 µg of LPS [Escherichia coli (E. coli) O111:B4; Sigma-Aldrich, St. Louis, MO, USA] to activate inflammation and synchronize arthritis onset. The mice were randomized to the control vehicle (n = 5 or n = 7–10) or experimental groups (n = 5 or n = 7–10). Therapeutic agents [P2-1 peptide (1.0 or 2.0 mg/kg) or pCTS-L-neutralizing mAb2 (1.0, 2.0, or 4.0 mg/kg)] were administered i.p. daily, either prophylactically from–Day 2 or therapeutically from Day 6 post-α-CII challenge. Arthritis severity was scored daily via a clinical scoring system [0–4 per paw: 0 = normal; 1 = mild redness and swelling in a single joint type (ankle, wrist, or individual digit); 2 = moderate redness and swelling affecting two joint types; 3 = severe redness and swelling across all 3 joint types; 4 = maximal redness and swelling of the entire paw that obscured the joint definition].
On Day 0, the mice recei ved an i.p. injection of 2 mg of anti-collagen II m Ab cocktail (α-CII, Chondrex, Inc., Redmond, WA). […]

Structure (SMILES): CCCC[C@H](NC(=O)[C@H](Cc1c[nH]cn1)NC(=O)[C@@H](NC(=O)[C@H](CCCCN)NC(=O)[C@@H](N)[C@@H](C)O)C(C)C)C(=O)N[C@@H](CCCCN)C(=O)N[C@@H](CO)C(=O)N[C@@H](Cc1ccccc1)C(=O)N[C@@H](CC(C)C)C(=O)N[C@@H](C)C(=O)N[C@@H](Cc1ccccc1)C(=O)N[C@@H](CCC(N)=O)C(=O)N[C@H](C(=O)N[C@@H](CCCCN)C(=O)N[C@H](C(=O)O)[C@@H](C)O)[C@@H](C)O [P2-1] (HELM PEPTIDE1{T.K.V.H.[Nle].K.S.F.L.A.F.Q.T.K.T}$$$$V2.0; N-terminus and C-terminus assumed)
- arthritis severity, in words (P2-1 1.0 or 2.0 mg/kg i.p. daily from Day 6 (therapeutic)): dose-dependently and significantly attenuated CAIA-induced arthritis severity
- arthritis severity, in words (P2-1 prophylactic, from Day -2, significant by Day 7): significantly reduced arthritis severity
